{"source": "patent US20250163057A1", "about": "“DCN-1 MODULATING COMPOUNDS AND METHODS OF USE THEREOF” (Cellarity, Inc., priority 2023, published 2025)", "key": {"[1]": {"test_system": "fetal hemoglobin protein (HbF) in human erythroid progenitor cells", "test": "Humanized mouse model: HbF protein in bone marrow by AlphaLISA", "assay_type": "in vivo, NBSGW mice reconstituted with human CD34+ cells", "conditions": "humanized mouse model, human erythroid progenitor cells, dose not given at this place", "source_text": "(§1) Results: To evaluate induction of target cell activity in the bone marrow, a humanized mouse model was developed. This model entails the reconstitution of human hematopoietic progenitor cells within the bone marrow of immunodeficient nonirradiated NOD.Cg-KitW-41J Tyr^+ Prkdc^scid Il2rg^tmlwjl/ThomJ (NBSGW) strain recipient mice. These mice are competent to engraft and differentiate human erythroid progenitor cells that express human adult hemoglobin mRNA and protein subunits within bone marrow.\n(§2) Based on these exposure results, humanized mice were treated with either the clinical standard of care compound, hydroxyurea (50 mg/kg; bid), or I-73, at 25 and 100 mg/kg (bid), by oral gavage over a three-week period. At the end of the treatment period, bone marrow was harvested for flow cytometry, as well as for assessment of HbF protein and fetal hemoglobin (HBG1) mRNA levels. Levels of both HbF protein and HBG1 mRNA were normalized to the percentage of human erythroid progenitor cells in the bone marrow of each mouse as determined by immunofluorescence staining for human Glycophorin A cell membrane expression. […] In addition, relative levels of fetal hemoglobin to those of potentially sickling-prone adult hemoglobin (HBB) was assessed.\n(§3) Female, 6-week-old NOD.Cg-Kit^W-41J Tyr^+ Prkdc^scid Il2rg^tm1Wjl/ThomJ (NBSGW) mice (Jackson Laboratory strain #[…]) were used for these studies. The mice were acclimatized to laboratory conditions for 5 days prior to inoculation.\n(§4) GCSF-mobilized human CD34+ cells were removed from liquid nitrogen storage, thawed in a 37° C. water bath and transferred quickly into a 50 mL conical tube. Cryovial was rinsed once with thaw buffer, 0.1% BSA in phosphate buffered saline (PBS), and buffer was transferred and combined with the original contents in the 50 mL conical tube. Next, doubling volumes of thaw buffer was added to the conical and gently swirled for ˜30 seconds to one minute until the volume in the conical was 32 mL. Cells and buffer were centrifuged at 300G for 8 minutes, and the supernatants were aspirated. Cells were counted by resuspending in 1 mL of thawing buffer per million of cells to a target concentration range of 0.5 to 2M/ml and counting with AOPI (1:1) on a luna cell counter to confirm the concentration of cells/mL. The cell concentration was adjusted to 3×10^6 cells/ml. For each mouse, 300 thousand cells in 0.1 ml were injected into the tail vein with a 25-gauge needle.\n(§5) On day 56 after human cell adoptive transfer, whole blood was collected from each mouse by submandibular bleed and a 100 μL sample of EDTA whole blood was transferred to a 2 ml tube containing 1.8 mL ACK Lysing Buffer at room temperature (RT), and then inverted to mix. Samples were incubated at RT for 15 min in the dark to lyse. After lysis, samples are centrifuged at 500×g for 5 minutes at RT to enable supernatant decanting. Remaining cells were washed with 1 mL of PBS-0.5% BSA and centrifuged at 500×g for 5 minutes at 4° C. Supernatant was decanted and cells were stained with leukocyte markers (human and mouse CD45 antibodies; BD347464, BD557659) to confirm human cell engraftment. Mice having less than one percent, or greater than ten percent, human CD45 positive cells were excluded from the subsequent study. Remaining mice were then randomized into treatment groups based on percentage of human cell engraftment. Each treatment group included 10-11 mice.\n(§6) Compound I-73 was dissolved in a 5% Cremophor RH40, 20% hydroxylpropyl-β-cyclodextrin solution. Hydroxyurea was solubilized in PBS. Formulations were prepared fresh daily. Commencing on day 84 post human cell engraftment, mice were treated by oral gavage with either I-73, hydroxyurea or their respective vehicles, for a period of three weeks using either once daily (QD) or twice daily (BID) dosing regimens. Mice were monitored daily for body weight and condition. […]"}, "[2]": {"test_system": "fetal hemoglobin gene expression (HBG1) in human erythroid progenitor cells", "test": "Humanized mouse model: fetal hemoglobin mRNA (HBG1, HBB) in bone marrow by Nanostring", "assay_type": "in vivo, NBSGW mice reconstituted with human CD34+ cells", "conditions": "humanized mouse model, human erythroid progenitor cells, dose not given at this place", "source_text": "as §1, §2, §3, §4, §5, §6"}, "[3]": {"test_system": "HBG1 mRNA and HbF protein in bone marrow cells", "test": "Induction of fetal hemoglobin by hydroxyurea and I-73 in human CD34+ cell reconstituted immunodeficient mice, with analysis of synergistic effect", "assay_type": "in vivo, NBSGW mice engrafted with human CD34+ cells", "description": "The model employed for assessment of induction of fetal hemoglobin by I-73 and hydroxyurea involved the use of human stem cell-reconstituted immunodeficient mice. Specifically, three hundred thousand human CD34-positive cells from G-CSF-mobilized human peripheral blood […] (PBMCs) were injected into the tail veins of NOD.Cg-KitW-41J Tyr+Prkdcscid Il2rgtm1Wjl/ThomJ (NBSGW) mice (JAX Strain No. 026622) on day 0. Twelve weeks later, mice were checked for human cell engraftment by sampling PBMCs from blood taken from the tail vein and staining for expression of murine or human CD45 by flow cytometry. After removing from the study those mice having greater than 10% human cells or less than 1% human cells in their peripheral blood, the remaining mice were randomized into treatment groups based on the human cell percentage. Thirteen weeks post engraftment, treatment was initiated with either hydroxyurea, I-73, or a combination of both compounds. Hydroxyurea was formulated in PBS (pH 7.4) and I-73 was formulated in 5% Cremophor RH 40/20% hydroxypropyl-β-cyclodextrin (Crem-CD) daily. Mice received either PBS or hydroxyurea each morning and I-73 or Crem-CD each afternoon by oral gavage. After twenty days of daily treatment, the mice were euthanized and their bone marrow (femurs, tibia and critae) were individually collected for subsequent analysis.\nBone marrow cell pellets (total 500K cells) were lysed in 20 μL of RLT (QIAGEN, 79216) with 1×β-mercaptoethanol (Gibco, 21985-023) and H2O followed by hybridizations. Hybridizations were done in a total volume of 15 μL [3 μL of RNA lysate added to master mix of 12 μL probe A/B (purchased from IDT), capture probe/reporter probes (NanoString™, XT TagSet-24, 121000602), proteinase K (Fisher Scientific, E00491) and H2O suspended in hybridization buffer]. Samples were hybridized at 65° C. for 22 hr. Following hybridization, the tripartide complexes were purified, immobilized by nCounter Prep Station and imaged by Digital Analyzer (nCounter MAX/FLEX Analysis System), to generate digital counts of barcodes corresponding to each target in the multiplexed reaction. Labeled barcodes obtained from unamplified extracts were counted at 555 images or field of view (FOV). The barcode counts for each sample were recorded in Reporter Code Count (RCC) files that are imported into nSolver analysis software (provided with CodeSet by NS) for quality control evaluation.\nTo assess levels of fetal hemoglobin by AlphaLISA, cells (200 k bone marrow cells/well) were lysed by resuspending pellets in 200 μL of lysis buffer plus protease inhibitor cocktail (100×), mixed well and incubating at room temperature for 30 minutes on the plate shaker @300 RPMs. Samples were then diluted 1:10 in a new 96-well round bottom plate by taking 10 uL of lysate and adding 90 μL of AlphaLISA immunoassay buffer. To create the “reaction plate”, 20 μL of Acceptor Beads (50 ug/mL final concentration) was added to each well using a multi-channel pipet. 10 uL of diluted cell lysate was added to the wells and mixed well. 20 μL of AlphaLISA immunoassay buffer was added to each well. Biotinylated antibody (final concentration) was then added to each well. The reaction plate on then placed on a plate shaker at 300 rpm for one hour to incubate at room temperature. After the first incubation was complete, 50 μL of Donor Beads ([…] final concentration) was added to each well and mixed well, keeping the plate in the dark. The covered plate was placed on a shaker at 350 rpm for 30 minutes to incubate at room temperature. After incubation, all 100 uL in each to an AlphaPlate in the dark. Plates were read on a VictorNIVO using the “Alpha 96 Well” setting. Alpha reading was programmed as the default setting with emission at 700 ms and 575/110n. […]"}}, "data": [{"molecule": "NC(=O)NO", "note": "[hydroxyurea]", "values": [{"measurement": "induction of fetal hemoglobin protein (HbF)", "setting": "[1]", "result": "demonstrated to induce"}, {"measurement": "induction of fetal hemoglobin protein (HbF)", "setting": "[1]; listed as Hydroxyurea", "result": "significantly induces"}, {"measurement": "induction of fetal hemoglobin mRNA (HBG1)", "setting": "[2]", "result": "demonstrated to induce"}, {"measurement": "induction of fetal hemoglobin mRNA (HBG1)", "setting": "[2]; listed as Hydroxyurea", "result": "significantly induces"}, {"measurement": "average increase of HbF % over vehicle", "setting": "[3]; HU 75 mg/kg alone, WLS ANOVA estimate", "result": 0.59}, {"measurement": "percentage of bone marrow cells expressing the erythroid cell marker glycophorin A", "setting": "[3]; alone or in combination with I-73", "result": "dose-dependent increase"}, {"measurement": "percentage of HbF protein by HPLC in GlyA-positive bone marrow cells", "setting": "[3]; compared with vehicle treatment group, FIG. 7", "result": "significant increase"}, {"measurement": "percentage of bone marrow cells expressing human CD45", "setting": "[3]; in vivo", "result": "did not alter"}, {"measurement": "HbF level on a per erythroid progenitor (GlyA-positive) cell basis by AlphaLISA", "setting": "[3]; treatment alone", "result": "less HbF induction"}]}]}
